From patent US20090175842A1, “DIETARY ANTI-BACTERIAL COMPOSITIONS” (priority 2006, published 2009)

Test system: H. pylori clinical isolate 1735 (HP-1735)
Assay: Antibacterial sensitivity / zone of growth inhibition by well/disc diffusion method
Assay type: cell-based, Helicobacter pylori
Conditions: for zone of growth inhibition: clinical isolate 1735; for Antibiotic susceptibility (disc diffusion): strain HP-1735
[1] = antibiotic concentration 30 µg/disk

Compound | zone of growth inhibition [1] | Antibiotic susceptibility (disc diffusion) (amoxicillin criterion) | zone of growth inhibition compared with dietary antibacterial composition (H. pylori clinical isolate 1735) | zone of growth inhibition (antibiotic concentration 15 µg/disk) | Antibiotic susceptibility (disc diffusion) (clarithromycin and tetracycline criterion)
CC1(C)S[C@@H]2[C@H](NC(=O)[C@H](N)c3ccc(O)cc3)C(=O)N2[C@H]1C(=O)O [AMO, Amoxicillin] | 50 mm | sensitive | – | – | –
CC[C@H]1OC(=O)[C@H](C)[C@@H](O[C@H]2C[C@@](C)(OC)[C@@H](O)[C@H](C)O2)[C@H](C)[C@@H](O[C@@H]2O[C@H](C)C[C@H](N(C)C)[C@H]2O)[C@](C)(OC)C[C@@H](C)C(=O)[C@H](C)[C@@H](O)[C@]1(C)O [CLA, Clarithromycin] | – | – | less zone of growth inhibition | 8 mm | resistant (≦30 mm for clarithromycin and tetracycline)
CN(C)[C@@H]1C(O)=C(C(N)=O)C(=O)[C@@]2(O)C(O)=C3C(=O)c4c(O)cccc4[C@@](C)(O)[C@H]3C[C@@H]12 [TET, Tetracycline] | 45 mm | – | – | – | –
